pIC50: −log10 of the molar value. Where two headings read alike, the source gives them in different places.
How the values were obtained:
[1] = target: T1, TF-VIIa (Homo sapiens, UniProt P08709); assay: TF-VIIa Assay; format: biochemical
T1 construct: 2nM recombinant human factor VIIa; purchased American Diagnostica, Greenwich CT; host or cells: soluble TF made in house in E. coli

[2] = target: Human factor Xa (Homo sapiens, UniProt P00742)
[3] = read-out: IC50 or % Inhibition TF-VIIa (30 µM); cells given as a plain number (IC50)
[4] = cells given as a plain number (IC50); read-out: IC50 or % Inhibition TF-VIIa (30 µM)

Sequence of Human factor Xa (P00742 235-488 limits assumed): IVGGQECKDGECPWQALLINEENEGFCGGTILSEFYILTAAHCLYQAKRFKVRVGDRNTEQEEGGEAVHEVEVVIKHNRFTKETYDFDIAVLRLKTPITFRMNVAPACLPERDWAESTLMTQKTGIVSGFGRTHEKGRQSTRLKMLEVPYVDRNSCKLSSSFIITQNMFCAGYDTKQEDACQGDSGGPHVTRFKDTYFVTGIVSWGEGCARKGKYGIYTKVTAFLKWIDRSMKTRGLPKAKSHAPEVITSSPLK
Sequence of Human factor Xa (P00742 41-179 limits assumed): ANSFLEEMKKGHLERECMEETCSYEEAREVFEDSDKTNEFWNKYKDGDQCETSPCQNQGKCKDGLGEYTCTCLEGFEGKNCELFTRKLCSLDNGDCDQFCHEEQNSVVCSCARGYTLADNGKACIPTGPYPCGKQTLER
T1 sequence (P08709 213-466 limits assumed): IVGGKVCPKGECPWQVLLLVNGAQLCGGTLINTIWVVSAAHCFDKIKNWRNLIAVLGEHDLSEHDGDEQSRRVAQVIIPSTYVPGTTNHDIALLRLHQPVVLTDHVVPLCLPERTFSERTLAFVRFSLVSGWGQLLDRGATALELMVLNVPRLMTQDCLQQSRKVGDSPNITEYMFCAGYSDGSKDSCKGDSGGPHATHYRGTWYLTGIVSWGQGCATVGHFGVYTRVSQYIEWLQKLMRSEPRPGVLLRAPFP
T1 sequence (P08709 61-212 limits assumed): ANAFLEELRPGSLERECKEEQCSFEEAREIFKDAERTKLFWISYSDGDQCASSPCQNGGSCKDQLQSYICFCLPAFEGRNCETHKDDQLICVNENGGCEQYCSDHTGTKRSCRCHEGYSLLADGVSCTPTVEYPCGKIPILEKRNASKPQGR
T1 sequence (P13726 33-251 partner limits assumed): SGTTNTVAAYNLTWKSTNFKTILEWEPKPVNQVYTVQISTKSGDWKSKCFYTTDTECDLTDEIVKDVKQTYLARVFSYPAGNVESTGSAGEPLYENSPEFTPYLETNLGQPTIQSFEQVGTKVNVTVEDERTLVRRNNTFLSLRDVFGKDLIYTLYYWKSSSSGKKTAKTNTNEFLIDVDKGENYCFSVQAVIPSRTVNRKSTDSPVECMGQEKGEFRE

Compound | pIC50 [1, 3] | IC50 or % Inhibition Factor Xa (30 µM) [2] [%] | pIC50 [1, 4] | IC50 or % Inhibition TF-VIIa (30 µM) [1] [%]
N=C(N)c1ccc(CNC(=O)Cn2c(-c3ccccc3)c(Cl)nc(NCCC3=CCCCC3)c2=O)cc1 [1507-17] | 4.56 | 16 |  | 
N=C(N)c1ccc(CNC(=O)Cn2c(-c3ccccc3)c(Cl)nc(NCCCN3CCCC3=O)c2=O)cc1 [1507-19] | 4.89 | 4 |  | 
N=C(N)c1ccc(CNC(=O)Cn2c(-c3ccccc3)c(Cl)nc(NC3CCC3)c2=O)cc1 [1507-21] |  | 23 | 6.40 | 
N=C(N)c1ccc(CNC(=O)Cn2c(-c3ccccc3)c(Cl)nc(NCc3ccccn3)c2=O)cc1 [1507-24] |  | 15 |  | 0
N=C(N)c1ccc(CNC(=O)Cn2c(-c3ccccc3)c(Cl)nc(NC(c3ccccc3)c3ccccc3)c2=O)cc1 [1507-35] | 4.70 | 28 |  | 
N=C(N)c1ccc(CNC(=O)Cn2c(-c3ccccc3)c(Cl)nc(NCc3cc(C(F)(F)F)cc(C(F)(F)F)c3)c2=O)cc1 [1507-40] | 5.24 | 11 |  | 
N=C(N)c1ccc(CNC(=O)Cn2c(-c3ccccc3)c(Cl)nc(NCC(F)(F)F)c2=O)cc1 [1507-41] |  | 17 |  | 48
N=C(N)c1ccc(CNC(=O)Cn2c(-c3ccccc3)c(Cl)nc(NCCCCc3ccccc3)c2=O)cc1 [1507-43] |  | 21 | 5.39 | 
N=C(N)c1ccc(CNC(=O)Cn2c(-c3ccccc3)c(Cl)nc(NCCc3ccc(Cl)c(Cl)c3)c2=O)cc1 [1507-44] | 5.22 | 9 |  | 
N=C(N)c1ccc(CNC(=O)Cn2c(-c3ccccc3)c(Cl)nc(NCc3ccc(Cl)cc3)c2=O)cc1 [1507-46] |  | 8 | 5.37 | 
CN(C)CCCNc1nc(Cl)c(-c2ccccc2)n(CC(=O)NCc2ccc(C(=N)N)cc2)c1=O [1507-47] |  | 19 | 4.75 | 
N=C(N)c1ccc(CNC(=O)Cn2c(-c3ccccc3)c(Cl)nc(NCC3COc4ccccc4O3)c2=O)cc1 (stereo not shown) [1512-01] | 4.74 | 4 |  | 
COc1cccc(CNc2nc(Cl)c(-c3ccccc3)n(CC(=O)NCc3ccc(C(=N)N)cc3)c2=O)c1OC [1512-02] | 4.72 | 3 |  | 
COc1ccc(CCNc2nc(Cl)c(-c3ccccc3)n(CC(=O)NCc3ccc(C(=N)N)cc3)c2=O)cc1OC [1512-05] | 4.78 | 10 |  | 
N=C(N)c1ccc(CNC(=O)Cn2c(-c3ccccc3)c(Cl)nc(NCCCc3ccccc3)c2=O)cc1 [1512-06] |  | 4 | 4.90 | 
CCOc1ccccc1CNc1nc(Cl)c(-c2ccccc2)n(CC(=O)NCc2ccc(C(=N)N)cc2)c1=O [1512-11] | 4.52 | 5 |  | 
CCCCC(CC)Nc1nc(Cl)c(-c2ccccc2)n(CC(=O)NCc2ccc(C(=N)N)cc2)c1=O (stereo not shown) [1512-12] | 4.95 | 5 |  | 
CN(C)CCNc1nc(Cl)c(-c2ccccc2)n(CC(=O)NCc2ccc(C(=N)N)cc2)c1=O [1512-15] |  | 6 | 4.68 | 
CC1CCCC(Nc2nc(Cl)c(-c3ccccc3)n(CC(=O)NCc3ccc(C(=N)N)cc3)c2=O)C1C (stereo not shown) [1512-23] | 4.84 | 6 |  | 
N=C(N)c1ccc(CNC(=O)Cn2c(-c3ccccc3)c(Cl)nc(NCc3ccc(C(F)(F)F)cc3F)c2=O)cc1 [1512-26] | 4.57 | 5 |  | 
N=C(N)c1ccc(CNC(=O)Cn2c(-c3ccccc3)c(Cl)nc(NCc3cc(C(F)(F)F)ccc3F)c2=O)cc1 [1512-27] | 4.78 | 3 |  | 
N=C(N)c1ccc(CNC(=O)Cn2c(-c3ccccc3)c(Cl)nc(NCc3cc(F)cc(C(F)(F)F)c3)c2=O)cc1 [1512-29] |  | 4 |  | 47
Cc1cccc(Cl)c1CNc1nc(Cl)c(-c2ccccc2)n(CC(=O)NCc2ccc(C(=N)N)cc2)c1=O [1512-31] |  | 14 |  | 43
N=C(N)c1ccc(CNC(=O)Cn2c(-c3ccccc3)c(Cl)nc(NCc3cc(F)c(F)c(F)c3)c2=O)cc1 [1512-32] | 4.66 | 5 |  | 

Compound | pIC50 [1, 3] | IC50 or % Inhibition Factor Xa (30 µM) [2] [%] | pIC50 [1, 4] | IC50 or % Inhibition TF-VIIa (30 µM) [1] [%]
N=C(N)c1ccc(CNC(=O)Cn2c(-c3ccccc3)c(Cl)nc(NCc3cc(Cl)ccc3Cl)c2=O)cc1 [1512-35] | 4.65 | 4 |  | 
N=C(N)c1ccc(CNC(=O)Cn2c(-c3ccccc3)c(Cl)nc(NCc3cc(F)ccc3F)c2=O)cc1 [1512-36] |  | 9 | 5.42 | 
N=C(N)c1ccc(CNC(=O)Cn2c(-c3ccccc3)c(Cl)nc(NCc3cc(F)cc(F)c3)c2=O)cc1 [1512-39] |  | 4 | 5.22 | 
N=C(N)c1ccc(CNC(=O)Cn2c(-c3ccccc3)c(Cl)nc(NCc3cccc(OC(F)(F)F)c3)c2=O)cc1 [1512-40] |  | 3 |  | 40
N=C(N)c1ccc(CNC(=O)Cn2c(-c3ccccc3)c(Cl)nc(NCCc3cccc(C(F)(F)F)c3)c2=O)cc1 [1512-41] |  | 4 | 4.52 | 
N=C(N)c1ccc(CNC(=O)Cn2c(-c3ccccc3)c(Cl)nc(NCc3ccccc3OC(F)(F)F)c2=O)cc1 [1512-42] | 4.60 | 1 |  | 
N=C(N)c1ccc(CNC(=O)Cn2c(-c3ccccc3)c(Cl)nc(NCc3c(F)cccc3F)c2=O)cc1 [1512-43] | 4.96 | 9 |  | 
N=C(N)c1ccc(CNC(=O)Cn2c(-c3ccccc3)c(Cl)nc(NCc3c(F)cccc3C(F)(F)F)c2=O)cc1 [1512-44] |  | 6 |  | 43
Cc1cc(Cl)cc(Cl)c1CNc1nc(Cl)c(-c2ccccc2)n(CC(=O)NCc2ccc(C(=N)N)cc2)c1=O [1512-45] |  | 11 |  | 27
CN1CCCC1CCNc1nc(Cl)c(-c2ccccc2)n(CC(=O)NCc2ccc(C(=N)N)cc2)c1=O (stereo not shown) [1512-46] | 4.93 | 10 |  | 
N=C(N)c1ccc(CNC(=O)Cn2c(-c3ccccc3)c(Cl)nc(NCCc3ccccn3)c2=O)cc1 [1512-47] | 5.46 | 13 |  | 
N=C(N)c1ccc(CNC(=O)Cn2c(-c3ccsc3)c(Cl)nc(NCc3ccccc3)c2=O)cc1 [1517-01] | 5.92 | 0 |  | 
C[C@@H](C(=O)NCc1ccc(C(=N)N)cc1)n1c(-c2ccccc2)c(Cl)nc(NCc2ccccc2)c1=O [1517-03] | 5.05 | 0 |  | 
CSCC(C(=O)NCc1ccc(C(=N)N)cc1)n1c(-c2ccccc2)c(Cl)nc(NCc2ccccc2)c1=O (stereo not shown) [1517-04] | 5.24 | 0 |  | 
C[C@H](C(=O)NCc1ccc(C(=N)N)cc1)n1c(-c2ccccc2)c(Cl)nc(NCc2ccccc2)c1=O [1517-05] | 5.34 | 0 |  | 
N=C(N)c1ccc(CNC(=O)Cn2c(-c3c(Cl)cccc3Cl)c(Cl)nc(NCc3ccccc3)c2=O)cc1 [1517-06] | 5.60 | 0 |  | 
N=C(N)c1ccc(CNC(=O)Cn2c(-c3ccsc3)c(Cl)nc(NC3CCC3)c2=O)cc1 [1517-07] | 6.40 | 0 |  | 
N=C(N)c1ccc(CNC(=O)C(Cc2ccccc2)n2c(-c3ccccc3)c(Cl)nc(NC3CCC3)c2=O)cc1 (stereo not shown) [1517-08] |  | 0 |  | 43
C[C@@H](C(=O)NCc1ccc(C(=N)N)cc1)n1c(-c2ccccc2)c(Cl)nc(NC2CCC2)c1=O [1517-09] | 5.59 | 0 |  | 
CSCC(C(=O)NCc1ccc(C(=N)N)cc1)n1c(-c2ccccc2)c(Cl)nc(NC2CCC2)c1=O (stereo not shown) [1517-10] | 5.70 | 0 |  | 
C[C@H](C(=O)NCc1ccc(C(=N)N)cc1)n1c(-c2ccccc2)c(Cl)nc(NC2CCC2)c1=O [1517-11] | 5.52 | 0 |  | 
N=C(N)c1ccc(CNC(=O)Cn2c(-c3c(Cl)cccc3Cl)c(Cl)nc(NC3CCC3)c2=O)cc1 [1517-12] | 6.10 | 0 |  | 
N=C(N)c1ccc(CNC(=O)Cn2c(-c3ccsc3)c(Cl)nc(NCCc3ccccc3)c2=O)cc1 [1517-13] | 6.22 | 0 |  | 
